This is an account of results in PubChem BioAssay (NCI).

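Tested at 5 concentrations; 48 h exposure; 96-well plates; endpoints linearly interpolated, else capped at highest concentration. TGI: total growth inhibition.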 Bounds are passed on as bounds.

Among the test systems are A498 renal; K-562 leukemia; MALME-3M melanoma; MDA-MB-231 breast; MOLT-4 leukemia; OVCAR-4 ovarian; SNB-19 CNS; SR leukemia; UACC-62 melanoma; UO-31 renal.
Common to all, as to test: NCI tumour cell line growth inhibition, 48 h

Consider `CSc1c(C(=O)Nc2ccc(Cl)cc2)c(N)n(N)c(=O)c1C#N`, for which the TGI in the assay on A498 renal, in the assay on K-562 leukemia, in the assay with MALME-3M melanoma, in the assay on MDA-MB-231 breast, with MOLT-4 leukemia and in the assay on OVCAR-4 ovarian was above 100 µM each time. The TGI in the assay on SNB-19 CNS, with SR leukemia, with UACC-62 melanoma and in the assay with UO-31 renal was above 100 µM in each case.

As for `O=C1Nc2ccccc2/C1=c1\[nH]c(=O)/c(=C\c2ccc(OCc3ccccc3)cn2)[nH]c1=O`, the TGI with A498 renal was 77.9 µM; with K-562 leukemia, 75.9 µM; with MALME-3M melanoma, above 100 µM; in the assay on MDA-MB-231 breast it was 91.7 µM; in the assay on MOLT-4 leukemia, above 100 µM; with OVCAR-4 ovarian it was above 100 µM. The TGI is above 100 µM in the assay with SNB-19 CNS, 69.4 µM in the assay with SR leukemia, above 100 µM with UACC-62 melanoma and 0.848 µM in the assay on UO-31 renal.

Consider `O=C(Nc1ccccc1)c1cc(S(=O)(=O)N2CCNNC2=O)c(S)cc1Cl`, for which the TGI is above 100 µM in the assay with A498 renal; above 100 µM in the assay on K-562 leukemia; above 100 µM in the assay with MALME-3M melanoma; 95 µM in the assay on MDA-MB-231 breast; above 100 µM in the assay with MOLT-4 leukemia; above 100 µM with OVCAR-4 ovarian. In addition, the TGI in the assay on SNB-19 CNS, with SR leukemia, in the assay with UACC-62 melanoma and with UO-31 renal was above 100 µM in each case.

As for `CC1(C)CC(=O)C2=C(C1)OC1=C(CC(C)(C)CC1=O)C2c1ccccc1[N+](=O)[O-]` (stereo not given), the TGI in the assay with A498 renal, with K-562 leukemia, in the assay on MALME-3M melanoma, in the assay with MDA-MB-231 breast, in the assay on MOLT-4 leukemia and in the assay with OVCAR-4 ovarian was above 100 µM each time. Also, the TGI was above 100 µM in the assay with SNB-19 CNS, above 100 µM with SR leukemia, above 100 µM in the assay with UACC-62 melanoma and 3.69 µM in the assay on UO-31 renal.

Take `C[N+]1(CCN[N+]2(C)CCCCC2)CCc2ccccc2C1` (stereo not given): the TGI with A498 renal, in the assay on K-562 leukemia, with MALME-3M melanoma, in the assay with MDA-MB-231 breast, in the assay with MOLT-4 leukemia and in the assay with OVCAR-4 ovarian was above 100 µM each time. In addition, the TGI in the assay with SNB-19 CNS, with SR leukemia, with UACC-62 melanoma and with UO-31 renal was above 100 µM each time.

In the case of `CC1CC(=O)N(N(C)C)C(C#N)(C#N)C1(C#N)C#N` (stereo not given), the TGI in the assay on A498 renal was 34.1 µM; in the assay with K-562 leukemia it was above 66.3 µM; in the assay on MALME-3M melanoma, 29.3 µM; with MDA-MB-231 breast it was 28.9 µM; in the assay on MOLT-4 leukemia it was 5.04 µM; in the assay on OVCAR-4 ovarian, 33.4 µM. For the same molecule, the TGI was above 61.8 µM with SNB-19 CNS, 30.7 µM in the assay with SR leukemia, 39.3 µM in the assay on UACC-62 melanoma and 31.3 µM in the assay on UO-31 renal.
